The values that follow come from US11878971B2, “Piperlongumine-based compound and immuno regulator comprising the same” (HUSCION CO., LTD., priority 2020, dated 2024).

“Also recorded” adds a separate entry of the source.

For one assay, the system named is IL-2 gene expression. The experiment in a line: T cell-dependent cytokine IL-2 gene expression inhibition, splenocytes ex vivo. The note with it: Balb/c mouse splenocytes, CD3 monoclonal antibody stimulation; control cyclosporine (CsA); FIG. 6.
The next assay deals with IL-17a gene expression. The experiment in a line: T cell-dependent cytokine IL-17a gene expression inhibition, splenocytes ex vivo. Conditions: Balb/c mouse splenocytes, CD3 monoclonal antibody stimulation.
The next assay relates to STAT6 signaling. Briefly: Reporter gene assay HEK-Blue-IL-4/IL-13. Type of assay: cell-based. Conditions: HEK-Blue-IL-4/IL-13 cells, stimulant interleukin-4; FIG. 14. The protocol:
(§1) In the present test example, THP1-Lucia NF-κB, HEK-Lucia RIG-1, HEK-Blue-IL-4/IL-13, and HEK-Blue IL-10 cell lines were purchased from InVivoGen, and evaluated for inhibitory activity on immune cell signaling, and the analysis was performed according to the manufacturer's analysis method. Specifically, the four types of cell lines were treated with each of test substances, which are the piperlongumine-based compounds 1 to 19, and then treated with each of promoter stimulants (LPS, 3p-hpRNA, interleukin-4, and interleukin-10). The response was induced according to the guidelines, and then the activity inhibitory ability was analyzed.
STAT6 is a transcription factor that plays a role in modulating the expression of various cytokines, hormones, and growth factors by signals coming from the outside. IL-4/IL-13 and STAT6 are also important modulator of Th2.

A further assay has as its system IL-4 gene expression. Briefly: T cell-dependent cytokine IL-4 gene expression inhibition, splenocytes ex vivo. Conditions: Balb/c mouse splenocytes, CD3 monoclonal antibody stimulation; control cyclosporine (CsA); FIG. 8.
In a further assay the test system is NF-κB signaling pathway. The experiment in a line: Reporter gene assay THP1-Lucia NF-κB. The note with it: THP1-Lucia NF-κB cells stimulated with LPS; FIG. 11. It counts as cell-based. The protocol:
as §1

Another assay deals with RIG1. Briefly: Reporter gene assay HEK-Lucia RIG-1. It counts as cell-based. Conditions: HEK-Lucia RIG-1 cells, stimulant 3p-hpRNA; FIG. 12. As for the experimental part: as §1
For a further assay, the system named is STAT3 signaling. Briefly: Reporter gene assay HEK-Blue IL-10. The note with it: HEK-Blue IL-10 cells, stimulant interleukin-10; FIG. 13. Type of assay: cell-based. As for the experimental part: as §1
The test system of a further assay is IFNγ expression. The experiment in a line: T cell-dependent cytokine IFNγ gene expression inhibition, splenocytes ex vivo. The note with it: Balb/c mouse splenocytes, CD3 monoclonal antibody stimulation; FIG. 7.

Regarding `COC(=O)c1cc(/C=C/C(=O)N2CCC=CC2=O)ccc1OC` [Compound 1, (E)-methyl-2-methoxy-5-(3-oxo-3-(2-oxo-5,6-dihydropyridin-1(2H)-yl)prop-1-en-1-yl)benzoate], the “IL-2 gene expression inhibitory activity” value with IL-2 gene expression is listed as “IL-2 gene expression inhibitory activity at a significant level equal to or greater than that of cyclosporine; also recorded: effectively inhibit”. The “IL-17a gene expression inhibitory activity” value with IL-17a gene expression (control cyclosporine (CSA), FIG. 10) is listed as “excellent IL-17a expression inhibitory activity compared with cyclosporine”. Moreover, the “IL-17a gene expression inhibitory activity, fold higher compared with Compound 3” value in the assay with IL-17a gene expression (relative to Compound 3) was “at least 6 fold”. Besides, the “IL-17a gene expression inhibitory activity, fold higher compared with Compound 9” value in the assay on IL-17a gene expression (relative to Compound 9) is recorded as “at least 3 fold”. The “STAT6 activity inhibitory effect” value with STAT6 signaling was “very high STAT6 activity inhibitory ability”. Also, the “IL-4 gene expression inhibitory activity” value with IL-4 gene expression is on record as “IL-4 gene expression inhibitory activity at a significant level equal to or greater than that of cyclosporine; also recorded: effectively inhibit”. In the assay with NF-κB signaling pathway, the “NF-κB activity inhibitory effect” value is given as “very high NF-κB activity inhibitory ability”. Also, the “RIG1 activity inhibitory effect” value in the assay with RIG1 is listed as “very high RIG1 activity inhibitory ability”. Besides, in the assay with STAT3 signaling, the “STAT3 activity inhibitory effect” value is “very high STAT3 activity inhibitory ability”. Further, in the assay with IFNγ expression, the “inhibitory ability on Th1-derived IFNγ expression” value (“inhibitory ability” for short) is given as “effectively inhibit”.
Consider `COC(=O)c1cc(/C=C/C(=O)N2CCC=C(Cl)C2=O)ccc1OC` [Compound 3, (E)-methyl-5-(3-(3-chloro-2-oxo-5,6-dihydropyridin-1(2H)-yl)-3-oxoprop-1-en-1-yl)-2-methoxybenzoate], for which the “IL-2 gene expression inhibitory activity” value in the assay on IL-2 gene expression was “IL-2 gene expression inhibitory activity at a significant level equal to or greater than that of cyclosporine; also recorded: effectively inhibit”. For the same compound, the “STAT6 activity inhibitory effect” value with STAT6 signaling is reported as “very high STAT6 activity inhibitory ability”. In addition, the “IL-4 gene expression inhibitory activity” value in the assay on IL-4 gene expression is given as “IL-4 gene expression inhibitory activity at a significant level equal to or greater than that of cyclosporine; also recorded: effectively inhibit”. Further, the “NF-κB activity inhibitory effect” value in the assay with NF-κB signaling pathway is given as “very high NF-κB activity inhibitory ability”. In addition, the “RIG1 activity inhibitory effect” value with RIG1 is “very high RIG1 activity inhibitory ability”. In the assay on STAT3 signaling, the “STAT3 activity inhibitory effect” value is recorded as “very high STAT3 activity inhibitory ability”. In the assay with IFNγ expression, the “inhibitory ability” value is recorded as “effectively inhibit”.
On to `COC(=O)c1cc(/C=C/C(=O)N2CCC=C(Br)C2=O)ccc1OC` [Compound 9, (E)-methyl-5-(3-(3-bromo-2-oxo-5,6-dihydropyridin-1(2H)-yl)-3-oxoprop-1-en-1-yl)-2-methoxybenzoate], for which the “IL-2 gene expression inhibitory activity” value in the assay with IL-2 gene expression was “IL-2 gene expression inhibitory activity at a significant level equal to or greater than that of cyclosporine; also recorded: effectively inhibit”. Besides, the “IL-4 gene expression inhibitory activity” value in the assay with IL-4 gene expression is recorded as “IL-4 gene expression inhibitory activity at a significant level equal to or greater than that of cyclosporine; also recorded: effectively inhibit”. Also, the “NF-κB activity inhibitory effect” value with NF-κB signaling pathway is recorded as “very high NF-κB activity inhibitory ability”. For the same compound, in the assay with RIG1, the “RIG1 activity inhibitory effect” value is “very high RIG1 activity inhibitory ability”. Besides, the “STAT3 activity inhibitory effect” value in the assay with STAT3 signaling is listed as “very high STAT3 activity inhibitory ability”. Further, in the assay with IFNγ expression, the “inhibitory ability” value is listed as “effectively inhibit”.
On to `COC(=O)c1cc(/C=C/C(=O)N2CCC=C(Br)C2=O)ccc1O` [Compound 10, (E)-methyl-5-(3-(3-bromo-2-oxo-5,6-dihydropyridin-1(2H)-yl)-3-oxoprop-1-en-1-yl)-2-hydroxybenzoate], for which the “RIG1 activity inhibitory effect” value with RIG1 is recorded as “very high RIG1 activity inhibitory ability”. The “STAT3 activity inhibitory effect” value in the assay on STAT3 signaling was “very high STAT3 activity inhibitory ability”.
As for `COC(=O)c1cc(/C=C/C(=O)N2CCC=C(Br)C2=O)ccc1OC(C)=O` [Compound 11, (E)-methyl-2-acetoxy-5-(3-(3-bromo-2-oxo-5,6-dihydropyridin-1(2H)-yl)-3-oxoprop-1-en-1-yl)benzoate], the “IL-4 gene expression inhibitory activity” value with IL-4 gene expression is “IL-4 gene expression inhibitory activity at a significant level equal to or greater than that of cyclosporine”.
Consider `COC(=O)c1cc(/C=C/C(=O)N2CCC=C(Cl)C2=O)ccc1O` [Compound 12, (E)-methyl-5-(3-(3-chloro-2-oxo-5,6-dihydropyridin-1(2H)-yl)-3-oxoprop-1-en-1-yl)-2-hydroxybenzoate], for which the “STAT6 activity inhibitory effect” value with STAT6 signaling is “very high STAT6 activity inhibitory ability”. For the same compound, the “STAT3 activity inhibitory effect” value in the assay with STAT3 signaling is “very high STAT3 activity inhibitory ability”.
Consider `COC(=O)c1cc(/C=C/C(=O)N2CCC=C(Cl)C2=O)ccc1OC(C)=O` [Compound 13, (E)-methyl-2-acetoxy-5-(3-(3-chloro-2-oxo-5,6-dihydropyridin-1(2H)-yl)-3-oxoprop-1-en-1-yl)benzoate], for which, in the assay on STAT6 signaling, the “STAT6 activity inhibitory effect” value is on record as “very high STAT6 activity inhibitory ability”. For the same compound, the “STAT3 activity inhibitory effect” value with STAT3 signaling is “very high STAT3 activity inhibitory ability”.
Turning to `O=C(/C=C/c1cccc([N+](=O)[O-])c1)N1CCC=C(Cl)C1=O` [Compound 16, (E)-3-chloro-1-(3-(3-nitrophenyl)acryloyl)-5,6-dihydropyridin-2(1H)-one], the “STAT6 activity inhibitory effect” value with STAT6 signaling is reported as “very high STAT6 activity inhibitory ability”. Also, in the assay on STAT3 signaling, the “STAT3 activity inhibitory effect” value is reported as “very high STAT3 activity inhibitory ability”.
